Test [1] addresses T1, recombinant human ACC2 (rhACC2) (Homo sapiens, UniProt O00763, V2141I).
T1 construct: a full length Cytomax clone of ACC2 was purchased from Cambridge Bioscience Limited; made in house; host or cells: CHO cells (tetracycline-induced, pcDNA5 FRT TO-TOPO)
Kind of test: recombinant hACC2 Transcreener assay (direct inhibition of ACC2 activity). Format: biochemical. Particulars: Transcreener ADP detection FP assay, 50 μM ATP, 30 μM acetyl-CoA, 50 min at 25° C. As for the experimental part: For example direct inhibition of ACC activity, for the compound of Formula (1) was determined using preparations of recombinant human ACC1 (rhACC1) and recombinant human ACC2 (rhACC2). Representative sequences of the recombinant human ACC1 and ACC2 that can be used in the assay are provided in FIG. 1 (SEQ ID NO. 1) and FIG. 2 (SEQ. ID NO. 2), respectively.
[3] Preparation of rhACC2. Human ACC2 inhibition was measured using purified recombinant human ACC2 (hrACC2). Briefly, a full length Cytomax clone of ACC2 was purchased from Cambridge Bioscience Limited and was sequenced and subcloned into PcDNA5 FRT TO-TOPO (Invitrogen, Carlsbad, Calif.). The ACC2 was expressed in CHO cells by tetracycline induction and harvested in 5 liters of DMEM/F12 with glutamine, biotin, hygromycin and blasticidin with 1 μg/mL tetracycline (Invitrogen, Carlsbad, Calif.). The conditioned medium containing ACC2 was then applied to a Softlink Soft Release Avidin column (Promega, Madison, Wis.) and eluted with 5 mM biotin. 4 mgs of ACC2 were eluted at a concentration of 0.05 mg/mL (determined by A280) with an estimated purity of 95% ([…]). The purified ACC2 was dialyzed in 50 mM Tris, 200 mM NaCl, 4 mM DTT, 2 mM EDTA, and 5% glycerol. The pooled protein was frozen and stored at −80° C., with no loss of activity upon thawing. For measurement of ACC2 activity and assessment of ACC2 inhibition, test compounds were dissolved in DMSO and added to the rhACC2 enzyme as a 5× stock with a final DMSO concentration of 1%.
[4] Measurement of human ACC2 inhibition. hACC2 was assayed in a Costar #3676 (Costar, Cambridge, Mass.) 384-well plate using the Transcreener ADP detection FP assay kit (Bellbrook Labs, Madison, Wisconsin) using the manufacturer's recommended conditions for a 50 uM ATP reaction. The final conditions for the assay were 50 mM HEPES, pH 7.2, 5 mM MgCl2, 5 mM tripotassium citrate, 2 mM DTT, 0.1 mg/mL BSA, 30 μM acetyl-CoA, 50 μM ATP, and 8 mM KHCO3 Typically, a 10 μl reaction was run for 50 min at 25° C., and 10 μl of Transcreener stop and detect buffer was added and the combination incubated at room temp for an additional 1 hour. The data was acquired on an Envision Fluorescence reader (Perkinelmer) using a 620 excitation Cy5 FP general dual mirror, 620 excitation Cy5 FP filter, 688 emission (S) and a 688 (P) emission filter.

In test [2] the target is T2, recombinant human ACC1 (rhACC1) (Homo sapiens, UniProt Q13085, DEL44-44).
T2 construct: recombinant baculovirus containing full length human ACC1 cDNA; made in house; host or cells: SF9 insect cells (baculovirus)
Kind of test: recombinant hACC1 Transcreener assay (direct inhibition of ACC1 activity). It counts as biochemical. The note with it: Transcreener ADP detection FP assay, 50 μM ATP, 30 μM acetyl-CoA, 120 min at 25° C. As for the experimental part: For example direct inhibition of ACC activity, for the compound of Formula (1) was determined using preparations of recombinant human ACC1 (rhACC1) and recombinant human ACC2 (rhACC2). Representative sequences of the recombinant human ACC1 and ACC2 that can be used in the assay are provided in FIG. 1 (SEQ ID NO. 1) and FIG. 2 (SEQ. ID NO. 2), respectively. Preparation of rhACC1. Two liters of SF9 cells, infected with recombinant baculovirus containing full length human ACC1 cDNA, were suspended in ice-cold lysis buffer (25 mM Tris, pH 7.5; 150 mM NaCl; 10% glycerol; 5 mM imidazole (EMD Bioscience; Gibbstown, N.J.); 2 mM TCEP (BioVectra; Charlottetown, Canada); Benzonase nuclease (10000 U/100 g cell paste; Novagen; Madison, Wis.); EDTA-free protease inhibitor cocktail (1 tab/50 mL; Roche Diagnostics; Mannheim, Germany). Cells were lysed by 3 cycles of freeze-thaw and centrifuged at 40,000×g for 40 minutes (4° C.). Supernatant was directly loaded onto a HisTrap FF crude column (GE Healthcare; Piscataway, N.J.) and eluted with an imidazole gradient up to 0.5 M over 20 column volumes (CV). ACC1-containing fractions were pooled and diluted 1:5 with 25 mM Tris, pH 7.5, 2 mM TCEP, 10% glycerol and direct loaded onto a CaptoQ (GE Healthcare) column and eluted with an NaCl gradient up to 1 M over 20 CV's. Phosphate groups were removed from purified ACC1 by incubation with lambda phosphatase (100 U/10 μM target protein; New England Biolabs; Beverly, Mass.) for 14 hours at 4° C.; okadaic acid was added (1 μM final concentration; Roche Diagnostics) to inhibit the phosphatase. Purified ACC1 was exchanged into 25 mM Tris, pH 7.5, 2 mM TCEP, 10% glycerol, 0.5 M NaCl by 6 hour dialysis at 4° C. Aliquots were prepared and frozen at −80° C. […] The final conditions for the assay were 50 mM HEPES, pH 7.2, 10 mM MgCl2, 7.5 mM tripotassium citrate, 2 mM DTT, 0.1 mg/mL BSA, 30 μM acetyl-CoA, 50 μM ATP, and 10 mM KHCO3 Typically, a 10 μl reaction was run for 120 min at 25° C., and 10 μl of Transcreener stop and detect buffer was added and the combination incubated at room temp for an additional 1 hour. The data was acquired on a Envision Fluorescence reader (Perkinelmer) using a 620 excitation Cy5 FP general dual mirror, 620 excitation Cy5 FP filter, 688 emission (S) and a 688 (P) emission filter.

The IC50 is the concentration at which inhibition is half-maximal.

T1 sequence (O00763 whole entry V2141I): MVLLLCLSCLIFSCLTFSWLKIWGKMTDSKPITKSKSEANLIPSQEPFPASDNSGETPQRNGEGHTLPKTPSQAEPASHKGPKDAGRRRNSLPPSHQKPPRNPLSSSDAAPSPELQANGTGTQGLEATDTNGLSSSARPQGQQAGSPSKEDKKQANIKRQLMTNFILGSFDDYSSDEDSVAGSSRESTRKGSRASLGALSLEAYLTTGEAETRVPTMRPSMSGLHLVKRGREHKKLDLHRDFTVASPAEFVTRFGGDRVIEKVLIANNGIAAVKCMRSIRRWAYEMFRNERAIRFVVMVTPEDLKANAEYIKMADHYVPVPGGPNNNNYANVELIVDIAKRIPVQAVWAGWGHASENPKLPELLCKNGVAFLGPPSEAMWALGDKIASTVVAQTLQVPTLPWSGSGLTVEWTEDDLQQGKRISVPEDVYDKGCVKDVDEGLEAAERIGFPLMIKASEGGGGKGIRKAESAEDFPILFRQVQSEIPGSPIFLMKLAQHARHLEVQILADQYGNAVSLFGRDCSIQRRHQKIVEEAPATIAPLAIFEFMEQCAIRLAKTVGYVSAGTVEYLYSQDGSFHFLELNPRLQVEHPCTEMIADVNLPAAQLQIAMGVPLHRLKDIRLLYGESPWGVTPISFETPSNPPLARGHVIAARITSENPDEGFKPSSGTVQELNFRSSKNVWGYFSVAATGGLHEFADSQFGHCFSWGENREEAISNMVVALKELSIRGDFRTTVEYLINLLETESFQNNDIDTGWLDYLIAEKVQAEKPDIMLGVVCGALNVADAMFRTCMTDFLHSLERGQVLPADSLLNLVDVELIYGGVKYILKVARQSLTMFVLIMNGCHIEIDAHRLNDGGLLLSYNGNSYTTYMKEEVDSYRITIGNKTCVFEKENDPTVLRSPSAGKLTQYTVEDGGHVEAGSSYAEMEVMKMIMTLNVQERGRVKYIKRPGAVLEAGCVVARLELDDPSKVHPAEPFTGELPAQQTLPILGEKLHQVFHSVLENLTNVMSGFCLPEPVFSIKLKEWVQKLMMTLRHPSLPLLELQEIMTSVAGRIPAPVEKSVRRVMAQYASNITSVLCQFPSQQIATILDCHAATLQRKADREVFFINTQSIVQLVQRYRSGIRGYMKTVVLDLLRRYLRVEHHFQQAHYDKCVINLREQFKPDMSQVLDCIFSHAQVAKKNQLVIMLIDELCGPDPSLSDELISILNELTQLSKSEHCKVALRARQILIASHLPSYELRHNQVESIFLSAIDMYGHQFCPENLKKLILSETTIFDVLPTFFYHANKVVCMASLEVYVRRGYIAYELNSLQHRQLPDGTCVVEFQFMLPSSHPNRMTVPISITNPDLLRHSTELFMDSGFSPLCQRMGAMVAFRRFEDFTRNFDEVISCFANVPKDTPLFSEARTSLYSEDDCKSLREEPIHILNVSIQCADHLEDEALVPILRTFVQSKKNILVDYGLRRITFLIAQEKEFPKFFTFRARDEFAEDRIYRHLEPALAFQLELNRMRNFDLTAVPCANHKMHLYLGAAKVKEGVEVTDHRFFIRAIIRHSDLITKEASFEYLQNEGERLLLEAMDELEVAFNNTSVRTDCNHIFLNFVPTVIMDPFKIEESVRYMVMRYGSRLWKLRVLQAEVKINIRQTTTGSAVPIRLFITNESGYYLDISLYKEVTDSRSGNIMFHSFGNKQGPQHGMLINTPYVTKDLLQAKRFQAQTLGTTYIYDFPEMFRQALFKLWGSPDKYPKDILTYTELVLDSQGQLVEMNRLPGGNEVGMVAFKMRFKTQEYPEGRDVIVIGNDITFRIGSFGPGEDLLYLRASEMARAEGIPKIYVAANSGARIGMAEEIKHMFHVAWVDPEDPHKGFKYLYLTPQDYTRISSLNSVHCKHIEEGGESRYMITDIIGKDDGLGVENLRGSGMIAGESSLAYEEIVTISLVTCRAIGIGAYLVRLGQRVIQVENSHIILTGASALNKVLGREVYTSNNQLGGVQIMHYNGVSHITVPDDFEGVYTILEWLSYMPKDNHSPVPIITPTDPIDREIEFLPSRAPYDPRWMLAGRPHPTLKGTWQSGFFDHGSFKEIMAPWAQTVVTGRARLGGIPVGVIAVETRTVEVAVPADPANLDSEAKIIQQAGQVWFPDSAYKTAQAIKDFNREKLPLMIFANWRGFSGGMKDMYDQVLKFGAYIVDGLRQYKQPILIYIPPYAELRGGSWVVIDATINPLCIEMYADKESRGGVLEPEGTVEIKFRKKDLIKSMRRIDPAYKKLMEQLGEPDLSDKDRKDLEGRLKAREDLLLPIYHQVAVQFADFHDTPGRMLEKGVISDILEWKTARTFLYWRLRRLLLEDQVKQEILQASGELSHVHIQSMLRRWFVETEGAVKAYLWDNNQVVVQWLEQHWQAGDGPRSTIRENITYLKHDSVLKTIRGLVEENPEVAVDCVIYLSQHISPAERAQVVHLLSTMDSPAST

Regarding `CC(C)(C)n1ncc2c1C(=O)CC1(CCN(C(=O)c3cc(Cl)c4[nH]ncc4c3)CC1)C2` [Example 2A-25], the IC50 came out at 22.7 nM in test [1] and 69.5 nM in test [2].

`CC(C)(C)n1ncc2c1C(=O)CC1(CCN(C(=O)c3nn(-c4ccccc4)nc3N)CC1)C2` [Example 11A-12]: the IC50 was determined as 850 nM in test [1] and 152 nM in test [2].

For `CC(C)n1ncc2c1C(=O)CC1(CCN(C(=O)c3c[nH]c4c(cnn4C)c3=O)CC1)C2` [Example 11A-66], the IC50 in test [1] amounted to 1390 nM; in test [2], 4080 nM.

For the molecule `Cc1cc(C(=O)N2CCC3(CC2)CC(=O)c2c(cnn2C2CCC2)C3)ccc1Cl` [Example 1A-3], the IC50 in test [1] stood at 155 nM; in test [2], 646 nM.

Regarding `CC(C)n1ncc2c1C(=O)CC1(CCN(C(=O)c3ccn4ccnc4c3)CC1)C2` [Example 11A-52], the IC50 in test [1] came to 176 nM; in test [2], 550 nM.

With `CC(C)(C)n1ncc2c1C(=O)CC1(CCN(C(=O)c3ccc4[nH]ncc4c3)CC1)C2` [Example 2A-28], the IC50 in test [1] stood at 17 nM; in test [2], 47.8 nM.

For `Cc1cc(C(=O)N2CCC3(CC2)CC(=O)c2c(cnn2C(C)(C)C)C3)n(-c2cccnc2)n1` [Example 11A-5], the IC50 turned out to be 13200 nM in test [1] and 16400 nM in test [2].

`CC(C)n1ncc2c1C(=O)CC1(CCN(C(=O)c3ccc(N4CCOCC4)nc3)CC1)C2` [Example 11A-24]: the IC50 in test [1] was determined as 836 nM; in test [2], 6060 nM.

On to `CC(C)(C)n1ncc2c1C(=O)CC1(CCN(C(=O)c3cccc(-c4c[nH]cn4)c3)CC1)C2` [Example 11A-7], for which the concentration for half-maximal inhibition (IC50) in test [1] stood at 10.4 nM; in test [2] it was 36.8 nM.

In the case of `CC(C)(C)n1ncc2c1C(=O)CC1(CCN(C(=O)c3cnc4ccnn4c3N)CC1)C2` [Example 2A-43], the figures for the IC50 in test [1] and in test [2] were 149 nM and 304 nM, respectively.

Regarding `CC(C)(C)n1ncc2c1C(=O)CC1(CCN(C(=O)c3cnc4cc[nH]c4c3)CC1)C2` [Example 2A-24], the IC50 in test [1] came out at 15.8 nM; in test [2] it was 30.7 nM.

In the case of `CC(C)n1ncc2c1C(=O)CC1(CCN(C(=O)c3ccc4[nH]cnc4n3)CC1)C2` [Example 11A-65], the results for the IC50 in test [1] and in test [2] were 388 nM and 1080 nM, respectively.

As for `CC(C)(C)n1ncc2c1C(=O)CC1(CCN(C(=O)c3ccc4[nH]cnc4c3)CC1)C2` [Example 2A-32], the IC50 in test [1] was 28.6 nM; in test [2] it was 37 nM.

As for `CC(C)n1ncc2c1C(=O)CC1(CCN(C(=O)c3ccc4[nH]c(=O)[nH]c4c3)CC1)C2` [Example 2A-33], the IC50 in test [1] was 14.5 nM; in test [2] it was 53.7 nM.

Regarding `Cc1nn(C)c(C(=O)N2CCC3(CC2)CC(=O)c2c(cnn2C(C)(C)C)C3)c1O` [Example 11A-25], the IC50 in test [1] came to 745 nM; in test [2], 331 nM.

As for `Cn1c(=O)[nH]c2cc(C(=O)N3CCC4(CC3)CC(=O)c3c(cnn3C(C)(C)C)C4)ccc21` [Example 2A-45], the figures for the IC50 in test [1] and in test [2] were 32.9 nM and 73.7 nM, respectively.

On to `CC(C)(C)n1ncc2c1C(=O)CC1(CCN(C(=O)c3ccc(-n4cncn4)cc3)CC1)C2` [Example 11A-72], for which the IC50 in test [1] amounted to 153 nM; in test [2], 867 nM.

As for `CCCn1ncc2c1C(=O)CC1(CCN(C(=O)c3ccc(Cl)c(C)c3)CC1)C2` [Example 2A-9], the IC50 in test [1] came out at 1850 nM; in test [2], 4260 nM.

On to `CC(C)n1ncc2c1C(=O)CC1(CCN(C(=O)c3cc4cnccc4[nH]3)CC1)C2` [Example 11A-56], for which the IC50 in test [1] amounted to 359 nM; in test [2], 1010 nM.

Take `CC(C)n1ncc2c1C(=O)CC1(CCN(C(=O)c3cn4cccc4cn3)CC1)C2` [Example 11A-34]: the IC50 in test [1] amounted to 638 nM; in test [2], 2140 nM.

For `Cc1cc(N(C)C)ncc1C(=O)N1CCC2(CC1)CC(=O)c1c(cnn1C(C)C)C2` [Example 2A-18], the IC50 in test [1] worked out at 458 nM; in test [2], 1010 nM.

For the molecule `Cc1cccn2cc(C(=O)N3CCC4(CC3)CC(=O)c3c(cnn3C(C)C)C4)nc12` [Example 11A-14], the IC50 in test [1] was 253 nM; in test [2], 418 nM.

For `CC(C)(C)n1ncc2c1C(=O)CC1(CCN(C(=O)c3ccc4[nH]cnc4n3)CC1)C2` [Example 11A-68], the IC50 was determined as 285 nM in test [1] and 825 nM in test [2].

Turning to `CC(C)(C)n1ncc2c1C(=O)CC1(CCN(C(=O)c3cc4cnccc4[nH]3)CC1)C2` [Example 11A-51], the results for the IC50 in test [1] and in test [2] were 108 nM and 110 nM, respectively.

Consider `Cc1nc2ccc(C(=O)N3CCC4(CC3)CC(=O)c3c(cnn3C3COC3)C4)cc2[nH]1` [Example 2A-42], for which the IC50 in test [1] was 766 nM; in test [2], 1300 nM.

For `Cc1nn(C(C)C)c2c1CC1(CCN(C(=O)c3ccc4[nH]ncc4c3)CC1)CC2=O` [Example 2A-75], the IC50 in test [1] stood at 37.7 nM; in test [2], 113 nM.

In the case of `CC(C)n1ncc2c1C(=O)CC1(CCN(C(=O)c3cnc4ccnn4c3N)CC1)C2` [Example 2A-40], the values for the IC50 in test [1] and in test [2] were 116 nM and 262 nM, respectively.

As for `CC(C)n1ncc2c1C(=O)CC1(CCN(C(=O)c3cnc4ccccc4n3)CC1)C2` [Example 2A-61], the IC50 in test [1] is 2190 nM; in test [2], 2320 nM.

As to `CC(C)n1ncc2c1C(=O)CC1(CCN(C(=O)c3cc(-c4cccnc4)[nH]n3)CC1)C2` [Example 11A-62], the IC50 in test [1] turned out to be 112 nM; in test [2] it was 338 nM.

Regarding `CC(C)n1ncc2c1C(=O)CC1(CCN(C(=O)c3cnc(N4CCOCC4)nc3)CC1)C2` [Example 2A-66], the IC50 amounted to 14000 nM in test [1] and 30000 nM in test [2].

Consider `CC(C)(C)n1ncc2c1C(=O)CC1(CCN(C(=O)c3ccc4cnccc4n3)CC1)C2` [Example 11A-61], for which the IC50 in test [1] is 1350 nM; in test [2], 2570 nM.

Turning to `Cc1nc2ccc(C(=O)N3CCC4(CC3)CC(=O)c3c(cnn3C(C)(C)C)C4)cc2[nH]1` [Example 2A-21], the IC50 in test [1] came out at 32.7 nM; in test [2], 93.3 nM.

On to `CC(C)n1ncc2c1C(=O)CC1(CCN(C(=O)c3cc(F)c4nc[nH]c4c3)CC1)C2` [Example 2A-36], for which the IC50 was found to be 29.6 nM in test [1] and 123 nM in test [2].

(Values after patent US9139587B2, “N1-pyrazolospiroketone acetyl-CoA carboxylase inhibitors” (Pfizer Inc., priority 2009, dated 2015).)
